Test: molar heat capacity at constant pressure; xn = mol fraction of the nth substance listed
Conditions: Liquid, Flow calorimetry

CO [methanol] + O
Conditions | molar heat capacity at constant pressure [J/K/mol]
329.01 K, 5000 kPa, x1 = 0.9 | 88.91
330.62 K, 10000 kPa, x1 = 0.8 | 89.87
330.92 K, 5000 kPa, x1 = 0.8 | 90.19
330.98 K, 2000 kPa, x1 = 0.8 | 89.81
331.74 K, 5000 kPa, x1 = 0.1 | 82.22
332.15 K, 5000 kPa, x1 = 0.7 | 90.68
333.12 K, 10000 kPa, x1 = 0.6 | 90
333.19 K, 5000 kPa, x1 = 0.6 | 90.87
333.43 K, 5000 kPa, x1 = 0.2 | 86.68
333.48 K, 10000 kPa, x1 = 0.2 | 86.18
333.52 K, 2000 kPa, x1 = 0.6 | 90.9
333.71 K, 2000 kPa, x1 = 0.2 | 86.86
333.89 K, 5000 kPa, x1 = 0.5 | 90.43
333.95 K, 5000 kPa, x1 = 0.4 | 89.97
334 K, 5000 kPa, x1 = 0.3 | 88.54
334.08 K, 10000 kPa, x1 = 0.4 | 89.57
334.13 K, 2000 kPa, x1 = 0.4 | 90.16
352.61 K, 5000 kPa, x1 = 0.9 | 95.17
354.08 K, 5000 kPa, x1 = 0.8 | 95.72
354.53 K, 5000 kPa, x1 = 0.1 | 82.78
355.25 K, 5000 kPa, x1 = 0.7 | 96.11
355.71 K, 5000 kPa, x1 = 0.6 | 95.6
355.86 K, 5000 kPa, x1 = 0.5 | 94.46
355.92 K, 5000 kPa, x1 = 0.2 | 87.32
356.11 K, 5000 kPa, x1 = 0.4 | 92.66
356.17 K, 5000 kPa, x1 = 0.3 | 90.87
376.69 K, 5000 kPa, x1 = 0.9 | 102.61
377.42 K, 5000 kPa, x1 = 0.8 | 102.59
377.92 K, 5000 kPa, x1 = 0.1 | 83.23
377.99 K, 5000 kPa, x1 = 0.7 | 101.84
378.34 K, 5000 kPa, x1 = 0.6 | 100.47
378.47 K, 5000 kPa, x1 = 0.5 | 98.56
378.64 K, 5000 kPa, x1 = 0.4 | 96.44
378.77 K, 5000 kPa, x1 = 0.3 | 92.83
378.78 K, 5000 kPa, x1 = 0.2 | 88.72
424.2 K, 5000 kPa, x1 = 0.5 | 107.27
424.22 K, 5000 kPa, x1 = 0.4 | 102.77
424.24 K, 5000 kPa, x1 = 0.7 | 114.48
424.36 K, 10000 kPa, x1 = 0.4 | 101.14
424.4 K, 2000 kPa, x1 = 0.4 | 102.94
424.42 K, 2000 kPa, x1 = 0.6 | 111.49
424.47 K, 5000 kPa, x1 = 0.6 | 111.25
424.53 K, 10000 kPa, x1 = 0.6 | 108.79
424.54 K, 5000 kPa, x1 = 0.8 | 118.06
424.59 K, 2000 kPa, x1 = 0.8 | 118.73
424.59 K, 10000 kPa, x1 = 0.8 | 118.7
424.7 K, 10000 kPa, x1 = 0.2 | 91.26
424.77 K, 2000 kPa, x1 = 0.2 | 92.01
424.89 K, 5000 kPa, x1 = 0.9 | 121.27
424.97 K, 5000 kPa, x1 = 0.3 | 97.58
425.05 K, 5000 kPa, x1 = 0.2 | 91.9
425.68 K, 5000 kPa, x1 = 0.1 | 85.15
437.16 K, 8500 kPa, x1 = 0.6 | 124.31
471.84 K, 10000 kPa, x1 = 0.6 | 122.64
471.87 K, 10000 kPa, x1 = 0.4 | 110.24
472.32 K, 5000 kPa, x1 = 0.4 | 111.75
